Experimental data taken from patent US11739101B2, “Bifunctional degraders of hematopoietic progenitor kinase and therapeutic uses thereof” (Nurix Therapeutics, Inc., priority 2020, dated 2023).

Biological target: T1, HPK1 (Homo sapiens, UniProt Q92918)
T1 construct: A HiBiT tag was introduced by CRISPR on the N terminus of HPK1 in Jurkat cells; host or cells: Jurkat (ATCC TIB-152), monoclonal CRISPR HiBiT knock-in line
Assay: HPK1 Cellular HiBiT Degradation Assay
Format: cell-based
Conditions: HiBiT-tagged HPK1 Jurkat cells, 24 hours, 10 uM to 0.1 nM; Dmax = 100 minus lowest % HPK1 remaining vs DMSO vehicle
Outline: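 Jurkat cells with CRISPR N-terminal HiBiT-tagged HPK1 were exposed to an 11-point 3.16-fold dilution series, 10 uM to 0.1 nM final, for 24 hours at 37° C./5% CO2. HPK1 was read by HiBiT lytic luminescence against DMSO as 100% and parental cells as background. Dmax is 100 minus the lowest % remaining from a four-parameter fit, with a parallel CellTiter-Glo viability check.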

T1 sequence (Q92918 whole entry): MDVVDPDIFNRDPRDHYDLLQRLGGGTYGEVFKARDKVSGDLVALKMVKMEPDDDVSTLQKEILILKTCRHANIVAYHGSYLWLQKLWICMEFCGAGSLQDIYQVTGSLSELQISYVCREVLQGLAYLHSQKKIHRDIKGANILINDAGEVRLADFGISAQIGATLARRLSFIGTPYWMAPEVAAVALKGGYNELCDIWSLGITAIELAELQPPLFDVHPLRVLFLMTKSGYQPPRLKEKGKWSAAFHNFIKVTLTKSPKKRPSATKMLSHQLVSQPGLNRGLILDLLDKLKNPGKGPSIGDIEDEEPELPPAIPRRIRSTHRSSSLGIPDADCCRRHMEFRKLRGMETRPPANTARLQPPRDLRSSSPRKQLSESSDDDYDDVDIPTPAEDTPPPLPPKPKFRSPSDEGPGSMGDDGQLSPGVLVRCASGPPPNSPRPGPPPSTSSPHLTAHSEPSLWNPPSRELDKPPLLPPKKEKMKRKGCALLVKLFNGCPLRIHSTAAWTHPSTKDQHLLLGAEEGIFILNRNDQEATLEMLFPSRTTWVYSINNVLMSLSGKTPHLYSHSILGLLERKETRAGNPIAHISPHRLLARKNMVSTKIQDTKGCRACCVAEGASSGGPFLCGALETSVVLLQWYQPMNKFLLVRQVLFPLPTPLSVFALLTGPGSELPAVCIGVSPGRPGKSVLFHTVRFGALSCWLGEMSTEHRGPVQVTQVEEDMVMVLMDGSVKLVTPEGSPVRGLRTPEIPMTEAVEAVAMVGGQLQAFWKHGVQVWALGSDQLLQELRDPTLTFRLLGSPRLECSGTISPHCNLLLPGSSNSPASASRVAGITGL

| Dmax [%] | SMILES |
| --- | --- |
| < 45 | Cc1cc(F)c(Nc2nc(-c3ccc4c(c3)N(C3CC(N5CCCCC5)C3)C(=O)C43CCN(C(=O)CN4CC5(CCN(c6ccc7c(c6)C(=O)N(C6CCC(=O)NC6=O)C7=O)CC5)C4)CC3)cc3ncn(C(C)C)c23)cc1C(=O)NC(C)C (stereo not drawn) [Example 28, 5-[(6-{1′-[2-(7-{2-[2,6-dioxopiperidin-3-yl]-1,3-dioxo-2,3-dihydro-1H-isoindol-5-yl}-2,7-diazaspiro[3.5]nonan-2-yl)acetyl]-2-oxo-1-[(1s,3s)-3-(piperidin-1-yl)cyclobutyl]-1,2-dihydrospiro[indole-3,4′-piperidin]-6-yl}-3-(propan-2-yl)-3H-imidazo[4,5-c]pyridin-4-yl)amino]-4-fluoro-2-methyl-N-(propan-2-yl)benzamide] |
| < 45 | Cc1cc(F)c(Nc2nc(-c3ccc4c(c3)N([C@H]3C[C@@H](N5CCCCC5)C3)C(=O)C43CCN(C(=O)C[C@@H]4CCN(C(=O)[C@H]5CC[C@H](Nc6cccc7c6C(=O)N(C6CCC(=O)NC6=O)C7=O)CC5)C4)CC3)cc3ncn(C(C)C)c23)cc1C(=O)NC(C)C (stereo partly drawn) [Example 56, 4-fluoro-2-methyl-5-{[6-(2-oxo-1′-{2-[(3S)-1-[(1R,4R)-4-({2-[2,6-dioxopiperidin-3-yl]-1,3-dioxo-2,3-dihydro-1H-isoindol-4-yl}amino)cyclohexanecarbonyl]pyrrolidin-3-yl]acetyl}-1-[(1s,3s)-3-(piperidin-1-yl)cyclobutyl]-1,2-dihydrospiro[indole-3,4′-piperidin]-6-yl)-3-(propan-2-yl)-3H-imidazo[4,5-c]pyridin-4-yl]amino}-N-(propan-2-yl)benzamide] |
| > 65 | Cc1cc(F)c(Nc2nc(-c3ccc4c(c3)N([C@H]3C[C@@H](N5CCCCC5)C3)C(=O)C43CCN(C(=O)CCCCCC(=O)N[C@H](C(=O)N4C[C@H](O)C[C@H]4C(=O)N[C@@H](C)c4ccc(-c5scnc5C)cc4)C(C)(C)C)CC3)cc3ncn(C(C)C)c23)cc1C(=O)NC(C)C [Example 7, (2S,4R)-1-((S)-2-(7-(6-(4-((2-fluoro-5-(isopropylcarbamoyl)-4-methylphenyl)amino)-3-isopropyl-3H-imidazo[4,5-c]pyridin-6-yl)-2-oxo-1-((1s,3s)-3-(piperidin-1-yl)cyclobutyl)spiro[indoline-3,4′-piperidin]-1′-yl)-7-oxoheptanamido)-3,3-dimethylbutanoyl)-4-hydroxy-N—((S)-1-(4-(4-methylthiazol-5-yl)phenyl)ethyl)pyrrolidine-2-carboxamide] |
| 45 to 65 | Cc1cc(F)c(Nc2nc(-c3ccc4c(c3)N([C@H]3C[C@@H](N5CCCCC5)C3)C(=O)C43CCN(C(=O)[C@H]4CC[C@@H](C(=O)N5CCC(Nc6cccc7c6C(=O)N(C6CCC(=O)NC6=O)C7=O)CC5)CC4)CC3)cc3ncn(C(C)C)c23)cc1C(=O)NC(C)C (stereo partly drawn) [Example 50, 4-fluoro-2-methyl-5-[(6-{2-oxo-1-[(1s,3s)-3-(piperidin-1-yl)cyclobutyl]-1′-[(1S,4s)-4-[4-({2-[2,6-dioxopiperidin-3-yl]-1,3-dioxo-2,3-dihydro-1H-isoindol-4-yl}amino)piperidine-1-carbonyl]cyclohexanecarbonyl]-1,2-dihydrospiro[indole-3,4′-piperidin]-6-yl}-3-(propan-2-yl)-3H-imidazo[4,5-c]pyridin-4-yl)amino]-N-(propan-2-yl)benzamide] |
| > 65 | Cc1cc(F)c(Nc2nc(-c3ccc4c(c3)N([C@H]3C[C@@H](N5CCCCC5)C3)C(=O)C43CCN(C(=O)C4CCN(CC5CCN(c6cccc7c6C(=O)N(C6CCC(=O)NC6=O)C7=O)CC5)CC4)CC3)cc3ncn(C(C)C)c23)cc1C(=O)NC(C)C (stereo partly drawn) [Example 37, 5-{[6-(1′-{1-[(1-{2-[2,6-dioxopiperidin-3-yl]-1,3-dioxo-2,3-dihydro-1H-isoindol-4-yl}piperidin-4-yl)methyl]piperidine-4-carbonyl}-2-oxo-1-[(1s,3s)-3-(piperidin-1-yl)cyclobutyl]-1,2-dihydrospiro[indole-3,4′-piperidin]-6-yl)-3-(propan-2-yl)-3H-imidazo[4,5-c]pyridin-4-yl]amino}-4-fluoro-2-methyl-N-(propan-2-yl)benzamide] |
| 45 to 65 | Cc1cc(F)c(Nc2nc(-c3ccc4c(c3)N([C@H]3C[C@@H](N5CCCCC5)C3)C(=O)C43CCN(C(=O)[C@@H]4CCN(C(=O)[C@H]5CC[C@H](Nc6cccc7c6C(=O)N(C6CCC(=O)NC6=O)C7=O)CC5)C4)CC3)cc3ncn(C(C)C)c23)cc1C(=O)NC(C)C (stereo partly drawn) [Example 52, 4-fluoro-2-methyl-5-[(6-{2-oxo-1′-[(3R)-1-[(1R,4R)-4-({2-[2,6-dioxopiperidin-3-yl]-1,3-dioxo-2,3-dihydro-1H-isoindol-4-yl}amino)cyclohexanecarbonyl]pyrrolidine-3-carbonyl]-1-[(1s,3s)-3-(piperidin-1-yl)cyclobutyl]-1,2-dihydrospiro[indole-3,4′-piperidin]-6-yl}-3-(propan-2-yl)-3H-imidazo[4,5-c]pyridin-4-yl)amino]-N-(propan-2-yl)benzamide] |
| < 45 | CC(=O)N1CCC2(CC1)C(=O)N([C@H]1C[C@@H](N3CCC[C@@H](C(=O)NCCCCCCCCCOc4cc(-c5scnc5C)ccc4CNC(=O)[C@@H]4C[C@@H](O)CN4C(=O)[C@@H](NC(=O)C4(F)CC4)C(C)(C)C)C3)C1)c1cc(-c3cc4ncn(C(C)C)c4c(Nc4cc(C(=O)NC(C)C)c(C)cc4F)n3)ccc12 [Example 17, (R)-1-((1s,3s)-3-(1′-acetyl-6-(4-((2-fluoro-5-(isopropylcarbamoyl)-4-methylphenyl)amino)-3-isopropyl-3H-imidazo[4,5-c]pyridin-6-yl)-2-oxospiro[indoline-3,4′-piperidin]-1-yl)cyclobutyl)-N-(9-(2-(((2S,4R)-1-((S)-2-(1-fluorocyclopropane-1-carboxamido)-3,3-dimethylbutanoyl)-4-hydroxypyrrolidine-2-carboxamido)methyl)-5-(4-methylthiazol-5-yl)phenoxy)nonyl)piperidine-3-carboxamide] |
| > 65 | Cc1cc(F)c(Nc2nc(-c3ccc4c(c3)N([C@H]3C[C@@H](N5CCCCC5)C3)C(=O)C43CCN(C(=O)[C@H]4CCN(C[C@H]5CC[C@H](Nc6cccc7c6C(=O)N(C6CCC(=O)NC6=O)C7=O)CC5)C4)CC3)cc3ncn(C(C)C)c23)cc1C(=O)NC(C)C (stereo partly drawn) [Example 73, 4-fluoro-2-methyl-5-[(6-{2-oxo-1′-[(3R)-1-{[(1R,4R)-4-({2-[2,6-dioxopiperidin-3-yl]-1,3-dioxo-2,3-dihydro-1H-isoindol-4-yl}amino)cyclohexyl]methyl}pyrrolidine-3-carbonyl]-1-[(1s,3s)-3-(piperidin-1-yl)cyclobutyl]-1,2-dihydrospiro[indole-3,4′-piperidin]-6-yl}-3-(propan-2-yl)-3H-imidazo[4,5-c]pyridin-4-yl)amino]-N-(propan-2-yl)benzamide] |
| 45 to 65 | Cc1cc(F)c(Nc2nc(-c3ccc4c(c3)N([C@H]3C[C@@H](N5CCCCC5)C3)C(=O)C43CCN(C(=O)c4ccn(C5CCN(Cc6cccc7c6C(=O)N(C6CCC(=O)NC6=O)C7=O)CC5)n4)CC3)cc3ncn(C(C)C)c23)cc1C(=O)NC(C)C (stereo partly drawn) [Example 65, 5-{[6-(1′-{1-[1-({2-[2,6-dioxopiperidin-3-yl]-1,3-dioxo-2,3-dihydro-1H-isoindol-4-yl}methyl)piperidin-4-yl]-1H-pyrazole-3-carbonyl}-2-oxo-1-[(1s,3s)-3-(piperidin-1-yl)cyclobutyl]-1,2-dihydrospiro[indole-3,4′-piperidin]-6-yl)-3-(propan-2-yl)-3H-imidazo[4,5-c]pyridin-4-yl]amino}-4-fluoro-2-methyl-N-(propan-2-yl)benzamide] |
| < 45 | Cc1cc(F)c(Nc2nc(-c3ccc4c(c3)N([C@H]3C[C@@H](N5CCCCC5)C3)C(=O)C43CCN(C(=O)C4CN(C5CCN(c6ccc7c(c6)C(=O)N(C6CCC(=O)NC6=O)C7=O)CC5)C4)CC3)cc3ncn(C(C)C)c23)cc1C(=O)NC(C)C (stereo partly drawn) [Example 24, 5-[(6-{1′-[1-(1-{2-[2,6-dioxopiperidin-3-yl]-1,3-dioxo-2,3-dihydro-1H-isoindol-5-yl}piperidin-4-yl)azetidine-3-carbonyl]-2-oxo-1-[(1s,3s)-3-(piperidin-1-yl)cyclobutyl]-1,2-dihydrospiro[indole-3,4′-piperidin]-6-yl}-3-(propan-2-yl)-3H-imidazo[4,5-c]pyridin-4-yl)amino]-4-fluoro-2-methyl-N-(propan-2-yl)benzamide] |
| > 65 | Cc1cc(F)c(Nc2nc(-c3ccc4c(c3)N([C@H]3C[C@@H](N5CCCCC5)C3)C(=O)C43CCN(C(=O)C4CCN(CC5CCN(c6ccc7c(c6)C(=O)N(C6CCC(=O)NC6=O)C7=O)CC5)CC4)CC3)cc3ncn(C(C)C)c23)cc1C(=O)NC(C)C (stereo partly drawn) [Example 45, 5-{[6-(1′-{1-[(1-{2-[2,6-dioxopiperidin-3-yl]-1,3-dioxo-2,3-dihydro-1H-isoindol-5-yl}piperidin-4-yl)methyl]piperidine-4-carbonyl}-2-oxo-1-[(1s,3s)-3-(piperidin-1-yl)cyclobutyl]-1,2-dihydrospiro[indole-3,4′-piperidin]-6-yl)-3-(propan-2-yl)-3H-imidazo[4,5-c]pyridin-4-yl]amino}-4-fluoro-2-methyl-N-(propan-2-yl)benzamide] |
| > 65 | Cc1cc(F)c(Nc2nc(-c3ccc4c(c3)N([C@H]3C[C@@H](N5CCCCC5)C3)C(=O)C43CCN(C(=O)c4ccc(OC5CCN(c6ccc7c(c6)C(=O)N(C6CCC(=O)NC6=O)C7=O)CC5)cc4)CC3)cc3ncn(C(C)C)c23)cc1C(=O)NC(C)C (stereo partly drawn) [Example 64, 5-{[6-(1′-{4-[(1-{2-[2,6-dioxopiperidin-3-yl]-1,3-dioxo-2,3-dihydro-1H-isoindol-5-yl}piperidin-4-yl)oxy]benzoyl}-2-oxo-1-[(1s,3s)-3-(piperidin-1-yl)cyclobutyl]-1,2-dihydrospiro[indole-3,4′-piperidin]-6-yl)-3-(propan-2-yl)-3H-imidazo[4,5-c]pyridin-4-yl]amino}-4-fluoro-2-methyl-N-(propan-2-yl)benzamide] |
